Assays:
[1] = Compound 1 crystallization kinetics at elevated temperature and 75% relative humidity; assay type: physicochemical; conditions: for Crystallization / stability towards crystallization: 75% relative humidity; for Compound 1 crystallized: at about 25 hours; for stability towards crystallization: 80° C. and 70° C. (FIGS. 12, 13)
Description: FIG. 12 is a plot of crystallization kinetics data for Compound 1 at 80° C. and 75% relative humidity when in a Compound 2 free tablet (circles), a spray dried dispersion (squares), and a tablet comprising Compound 2 (triangles).
FIG. 13 is a plot of crystallization kinetics data for Compound 1 at 70° C. and 75% relative humidity when in a Compound 2 free tablet (circles), a spray dried dispersion (squares), and a tablet comprising Compound 2 (triangles).
FIGS. 12 and 13 depict the Compound 1 crystallization kinetics under 75% relative humidity and 80° C. and 70° C., respectively. Triangles represent a tablet formulation of a blend of the two separate spray dried dispersions of Compound 1 and Compound 2. Circles represent the same tablet formulation just lacking Compound 2. Squares represent the separate spray dried dispersion of Compound 1.
The phenomena of one therapeutic agent having improved properties in the presence of another therapeutic agent is not limited to the neat co-spray dried dispersions substantially free of polymer previously described. […] Table 2 lists the % crystallization of an 80% by weight SDD of Compound 1 over time at 80° C. at 75% relative humidity in the absence of Compound 2. Table 3 lists the % crystallization of Compound 1 in the presence of Compound 2 in a tablet of the present invention comprising a blend of Compound 1 SDD and Compound 2 SDD at […] at 75% relative humidity.

[2] = Kinetic dissolution / fluid stability in fed state simulated intestinal fluid (FedSIF); assay type: physicochemical
From the text: FIG. 9 is a bar graph of kinetic dissolution data for Compound 1 in fed state simulated intestinal fluid (FedSIF) solutions in the presence of Compound 2 in a neat coSDD substantially free of polymer and alone as measured by concentration versus time.
FIG. 10 is a bar graph of kinetic dissolution data for Compound 2 in FedSIF solutions in the presence of Compound 1 in a neat coSDD substantially free of polymer and alone as measured by concentration versus time.
The present invention features compositions where properties such as physical stability and dissolution rates are improved when one therapeutic agent is in the presence of another. […] FIG. 9 depicts fluid stability of Compound 1 in fed state simulated intestinal fluid (FedSIF). The set of bars labeled Neat 1:1 coSDD is the neat coSDD of Compound 1 and Compound 2 substantially free of polymer featured in the present invention. Along the y axis is concentration of Compound 1 in mg/ml and each bar along the x axis represents time: 0.5 h, 1 h, 3 h, 5 h, 29 h, and 72 h.
FIG. 10 depicts fluid stability of Compound 2 in compositions of the present invention in FedSIF. The set of bars labeled Neat 1:1 coSDD is the neat coSDD of Compound 1 and Compound 2 substantially free of polymer featured in the present invention.

[3] = Dissolution rate experiments in fasted simulated fluids; assay type: physicochemical; conditions: tablet of neat co-spray dried dispersion of Compound 1 and Compound 2 vs tablet of SDD of Compound 2 alone and polymer; fasted simulated fluids (FIG. 11)
From the text: FIG. 11 is a plot of dissolution data for Compound 2 in fasted simulated fluids alone and in the presence of Compound 1 in a neat coSDD substantially free of polymer. […] FIG. 11 depicts the results of dissolution rate experiments for a tablet comprising the neat co-spray dried dispersion of Compound 1 and Compound 2 (circles) and a tablet comprising a spray dried dispersion of Compound 2 alone and polymer (triangles).

[4] = Dog pK of tablets (Compound 2 exposure); assay type: in vivo
From the text: FIG. 11 depicts the results of dissolution rate experiments for a tablet comprising the neat co-spray dried dispersion of Compound 1 and Compound 2 (circles) and a tablet comprising a spray dried dispersion of Compound 2 alone and polymer (triangles). […] When Compound 2 is in the presence of Compound 1, the maximum concentration and area under the curve increases by 73% and 47%, respectively, relative to Compound 2 alone.

[5] = dog pK, ratio Neat coSDD tablet / Individual Tablets (Compound 2 alone)
[6] = dog, Compound 2 in the presence of Compound 1 relative to Compound 2 alone

Question: With `CC(C)(CO)c1cc2cc(NC(=O)C3(c4ccc5c(c4)OC(F)(F)O5)CC3)c(F)cc2n1C[C@@H](O)CO` [Compound 1, (R)-1-(2,2-difluorobenzo[d][1,3]dioxol-5-yl)-N-(1-(2,3-dihydroxypropyl)-6-fluoro-2-(1-hydroxy-2-methylpropan-2-yl)-1H-indol-5-yl)cyclopropanecarboxamide] as the molecule, how does the Crystallization ([1]; 80% by weight SDD of Compound 1, absence of Compound 2, 80° C., 0 Hrs.) read?
Answer: 0%

Question: What about the Crystallization ([1]; 80% by weight SDD of Compound 1, absence of Compound 2, 80° C., 5.2 Hrs.) of the same molecule?
Answer: 0%

Question: And the Crystallization ([1]; 80% by weight SDD of Compound 1, absence of Compound 2, 80° C., 6 Hrs.)?
Answer: 0%

Question: What about the Crystallization ([1]; 80% by weight SDD of Compound 1, absence of Compound 2, 80° C., 9 Hrs.) of the same molecule?
Answer: 0.7%

Question: And the Crystallization ([1]; 80% by weight SDD of Compound 1, absence of Compound 2, 80° C., 14.7 Hrs.)?
Answer: 5%

Question: What about the Crystallization ([1]; 80% by weight SDD of Compound 1, absence of Compound 2, 80° C., 25 Hrs.) of the same molecule?
Answer: 46.4%

Question: And the Crystallization ([1]; 80% by weight SDD of Compound 1, absence of Compound 2, 80° C., 168 Hrs.)?
Answer: 88%

Question: What about the “Compound 1 crystallized” value ([1]; in the absence of Compound 2) of the same molecule?
Answer: 46%

Question: And the stability towards crystallization ([1]; tablet blend of the two separate SDDs vs Compound 2 free tablet)?
Answer: significantly more stable towards crystallization

Question: And the Crystallization ([1]; tablet comprising a blend of Compound 1 SDD and Compound 2 SDD, 80 CC, 0 Hrs.)?
Answer: 0%

Question: And the Crystallization ([1]; tablet comprising a blend of Compound 1 SDD and Compound 2 SDD, 80 CC, 7 Hrs.)?
Answer: 3%

Question: And the Crystallization ([1]; tablet comprising a blend of Compound 1 SDD and Compound 2 SDD, 80 CC, 14 Hrs.)?
Answer: 6%

Question: And the Crystallization ([1]; tablet comprising a blend of Compound 1 SDD and Compound 2 SDD, 80 CC, 21 Hrs.)?
Answer: 8%

Question: And the Crystallization ([1]; tablet comprising a blend of Compound 1 SDD and Compound 2 SDD, 80 CC, 26 Hrs.)?
Answer: 10%

Question: And the stability towards crystallization ([1]; tablet formulation with Compound 2 vs separate spray dried dispersion of Compound 1)?
Answer: also more stable

Question: And the “Compound 1 crystallized” value ([1]; when Compound 2 was present)?
Answer: 10%

Question: What about the “concentration stability of Compound 1 in FedSIF” value ([2]; 1:1 coSDD (20% HPMCAS) vs Compound 1 SDD (50% HPMCAS), over 72 h (FIG. 9)) of the same molecule?
Answer: concentration stability is greater

Question: What about the “concentration stability of Compound 1 in FedSIF” value ([2]; 2:1 coSDD (20% HPMCAS) vs Compound 1 SDD (50% HPMCAS), over 72 h (FIG. 9)) of the same molecule?
Answer: more consistent

Question: And the “stability of Compound 1 concentration in FedSIF” value ([2]; Neat 1:1 coSDD (no polymer) vs Compound 1 SDD (50% HPMCAS), over 72 h (FIG. 9))?
Answer: greater and more consistent stability

Question: With `CC(C)(C)c1cc(C(C)(C)C)c(NC(=O)c2c[nH]c3ccccc3c2=O)cc1O` [Compound 2, N-[2,4-bis(1,1-dimethylethyl)-5-hydroxyphenyl]-1,4-dihydro-4-oxoquinoline-3-carboxamide] as the molecule, how does the “concentration stability of Compound 2 in FedSIF” value ([2]; 1:1 coSDD (20% HPMCAS) vs Compound 2 SDD (20% HPMCAS), over 72 h (FIG. 10)) read?
Answer: concentration stability is greater

Question: And the “concentration stability of Compound 2 in FedSIF” value ([2]; 2:1 coSDD (20% HPMCAS) vs Compound 2 SDD (20% HPMCAS), over 72 h (FIG. 10))?
Answer: more consistent

Question: What about the “stability of Compound 2 concentration in FedSIF” value ([2]; Neat 1:1 coSDD (no polymer) vs Compound 2 SDD (20% HPMCAS), over 72 h (FIG. 10)) of the same molecule?
Answer: increased stability

Question: What about the “dissolution rate of Compound 2” value [3] of the same molecule?
Answer: significant increase in dissolution rates

Question: And the “AUC wt norm, Geometric Mean Ratio” value [4, 5]?
Answer: 146.73

Question: And the “Cmax wt norm, Geometric Mean Ratio” value [4, 5]?
Answer: 172.93

Question: And the “increase of area under the curve” value [4, 6]?
Answer: 47%

Question: And the “increase of maximum concentration” value [4, 6]?
Answer: 73%

Question: What about the exposure in vivo ([4]; dog, tablet of neat coSDD relative to tablet of Compound 2 alone) of the same molecule?
Answer: statistically significant increases in exposure
